{
  "source": "patent US7262212B2",
  "about": "“2,3-dihydro-6-nitroimidazo[2,1-b]oxazoles” (Otsuka Pharmaceutical Co., Ltd., priority 2002, dated 2007)",
  "data": [
    {"test_system": "M. intracellulare", "test": "not given", "conditions": "used at 250 μg/ml or less; cited from earlier work", "values": [
      {"smiles": "CCC1Cn2cc([N+](=O)[O-])nc2O1", "note": "(centres unmarked) [CGI-17341]", "activity": "does not have the activity"}
    ]},
    {"test_system": "M. avium", "test": "not given", "conditions": "used at 250 μg/ml or less; cited from earlier work", "values": [
      {"smiles": "CCC1Cn2cc([N+](=O)[O-])nc2O1", "note": "(centres unmarked) [CGI-17341]", "activity": "does not have the activity"}
    ]},
    {"test_system": "Mycobacterium tuberculosis (H37Rv strain)", "test": "not given", "conditions": "cited from earlier work", "values": [
      {"smiles": "CCC1Cn2cc([N+](=O)[O-])nc2O1", "note": "(centres unmarked) [CGI-17341]", "bactericidal action": "has a bactericidal action"}
    ]},
    {"test_system": "Mycobacterium tuberculosis (M. tuberculosis H37Rv)", "test": "Antimicrobial assay (agar dilution method), minimal inhibitory concentration", "type": "cell-based", "conditions": "336 h, 7H11 agar medium, approximately 10^6 CFU/ml, 5 μl inoculated, 37° C. for 14 days", "units": {"MIC": "µg/mL"}, "values": [
      {"smiles": "C[C@]1(CN2CCN(c3ccc(OC(F)(F)F)cc3)CC2)Cn2cc([N+](=O)[O-])nc2O1", "note": "[Example 397, (S)-2-[4-(4-trifluoromethoxyphenyl)-piperazin-1-ylmethyl]-2-methyl-6-nitro-2,3-dihydroimidazo[2,1-b]oxazole]", "MIC": 0.024}
    ]},
    {"test_system": "M. fortuitum", "test": "not given", "conditions": "used at 250 μg/ml or less; cited from earlier work", "values": [
      {"smiles": "CCC1Cn2cc([N+](=O)[O-])nc2O1", "note": "(centres unmarked) [CGI-17341]", "activity": "does not have the activity"}
    ]},
    {"test_system": "not given", "test": "not given", "conditions": "not given", "values": [
      {"smiles": "C[C@]1(COc2ccc(-n3ccnc3)cc2)Cn2cc([N+](=O)[O-])nc2O1", "melting point": "172 to 175 °C"},
      {"smiles": "CCOC(=O)C1CCN(c2ccc(OC[C@@]3(C)Cn4cc([N+](=O)[O-])nc4O3)cc2)CC1", "melting point": "208.2 to 211.5 °C"},
      {"smiles": "O=C(Nc1ccc(N2CCOCC2)c(F)c1)N1CCC2(CC1)Cn1cc([N+](=O)[O-])nc1O2", "melting point": "240 to 245 °C (dec.)"},
      {"smiles": "CC(C)(C)OC(=O)N1CCC(c2ccc(OC[C@@]3(C)Cn4cc([N+](=O)[O-])nc4O3)cc2)CC1", "melting point": "227.5 to 228.3 °C (dec.)"},
      {"smiles": "C[C@]1(CN2CCN(C3CCN(c4ccc(OC(F)(F)F)cc4)CC3)CC2)Cn2cc([N+](=O)[O-])nc2O1", "melting point": "180 to 181.5 °C"},
      {"smiles": "C[C@]1(CN2CCC(N3CCN(C(=O)c4ccc(OC(F)(F)F)cc4)CC3)CC2)Cn2cc([N+](=O)[O-])nc2O1", "melting point": "137 to 138 °C"},
      {"smiles": "C[C@]1(COc2ccc(N3CCN(Cc4ccc(C(F)(F)F)cc4)CC3)cc2)Cn2cc([N+](=O)[O-])nc2O1", "melting point": "205.5 to 207 °C"},
      {"smiles": "C[C@]1(COc2ccc(C(=O)N3CCN(C(=O)OCc4ccc(OC(F)(F)F)cc4)CC3)cc2)Cn2cc([N+](=O)[O-])nc2O1", "melting point": "168.5 to 172 °C"},
      {"smiles": "C[C@]1(COc2ccc(N3CCN(Cc4ccc(OC(F)(F)F)cc4)CC3)cc2)Cn2cc([N+](=O)[O-])nc2O1", "melting point": "213.5 to 217 °C"},
      {"smiles": "CC1(CNC(=O)OCc2ccc(OC(F)(F)F)cc2)Cn2cc([N+](=O)[O-])nc2O1", "note": "(centres unmarked)", "melting point": "182.3 to 184.4 °C"},
      {"smiles": "CNC(C1CCN(c2ccc(OC(F)(F)F)cc2)CC1)[C@]1(C)Cn2cc([N+](=O)[O-])nc2O1", "note": "(some centres unmarked)", "melting point": "127.2 to 129.7 °C"},
      {"smiles": "CC1(CN2CCC(C(=O)c3ccc(C(F)(F)F)cc3)CC2)Cn2cc([N+](=O)[O-])nc2O1", "note": "(centres unmarked)", "melting point": "172 to 174 °C"},
      {"smiles": "CC1(N2CCC(C(=O)c3ccc(OC(F)(F)F)cc3)CC2)Cn2cc([N+](=O)[O-])nc2O1", "note": "(centres unmarked)", "melting point": "165 to 167 °C"},
      {"smiles": "CC(C)(C)OC(=O)N(CCc1ccc(C(F)(F)F)cc1)C1CCN(C[C@@]2(C)Cn3cc([N+](=O)[O-])nc3O2)CC1", "melting point": "206.8 to 208.6 °C"},
      {"smiles": "C[C@]1(CN2CCC(NC(=O)OC3CCN(c4ccc(C(F)(F)F)cc4)CC3)CC2)Cn2cc([N+](=O)[O-])nc2O1", "melting point": "134.4 to 136.9 °C"},
      {"smiles": "C[C@]1(CN2CCC(NCCc3ccc(C(F)(F)F)cc3)CC2)Cn2cc([N+](=O)[O-])nc2O1", "melting point": "80.7 to 84.2 °C"},
      {"smiles": "CC1(CN2CCN(C(=O)OCc3ccccc3)CC2)Cn2cc([N+](=O)[O-])nc2O1", "note": "(centres unmarked)", "melting point": "130.5 to 132.1 °C"},
      {"smiles": "CC1(CN2CCN(C(=O)Oc3ccccc3)CC2)Cn2cc([N+](=O)[O-])nc2O1", "note": "(centres unmarked)", "melting point": "81 to 85 °C"},
      {"smiles": "C[C@]1(CN2CCN(c3ccc(Cl)cc3)CC2)Cn2cc([N+](=O)[O-])nc2O1", "melting point": "218 to 219.6 °C"},
      {"smiles": "CC1(CN2CCN(C(=O)CCc3ccccc3)CC2)Cn2cc([N+](=O)[O-])nc2O1", "note": "(centres unmarked)", "melting point": "166.8 to 169.1 °C"},
      {"smiles": "CN1C(=O)CCc2cc(COC(=O)N3CCN(C[C@@]4(C)Cn5cc([N+](=O)[O-])nc5O4)CC3)ccc21", "melting point": "189 to 190 °C"},
      {"smiles": "CC1(COc2nc3ccccc3o2)Cn2cc([N+](=O)[O-])nc2O1", "note": "(centres unmarked)", "melting point": "200 to 203 °C"},
      {"smiles": "C[C@]1(CN2CCN(C(=O)OCC=Cc3cccc(C(F)(F)F)c3)CC2)Cn2cc([N+](=O)[O-])nc2O1.O=C(O)/C=C\\C(=O)O", "melting point": "136 to 138 °C"},
      {"smiles": "C[C@]1(CN2CCN(C(=O)NCc3ccc(C(F)(F)F)cc3)CC2)Cn2cc([N+](=O)[O-])nc2O1", "melting point": "101 to 103.6 °C"},
      {"smiles": "CC1(CSc2nc3ccccc3o2)Cn2cc([N+](=O)[O-])nc2O1", "note": "(centres unmarked)", "melting point": "163 to 166 °C"},
      {"smiles": "C[C@]1(CN2CCN(C(=O)N3CCC(c4ccc(C(F)(F)F)cc4)CC3)CC2)Cn2cc([N+](=O)[O-])nc2O1", "melting point": "179.1 to 181.9 °C"},
      {"smiles": "C[C@]1(CN2CCN(C(=O)N3C=CC(c4ccc(Cl)cc4)=CC3)CC2)Cn2cc([N+](=O)[O-])nc2O1", "melting point": "156 to 159 °C"},
      {"smiles": "C[C@]1(CN2CCN(Nc3ccc(C(F)(F)F)cc3)CC2)Cn2cc([N+](=O)[O-])nc2O1", "melting point": "192.1 to 195.3 °C"},
      {"smiles": "CC1(CSc2nnnn2-c2ccccc2)Cn2cc([N+](=O)[O-])nc2O1", "note": "(centres unmarked)", "melting point": "140 to 147 °C"},
      {"smiles": "COc1ccc(CN2CCN(CC3(C)Cn4cc([N+](=O)[O-])nc4O3)C2=O)cc1", "note": "(centres unmarked)", "melting point": "158.6 to 160.5 °C"},
      {"smiles": "O=[N+]([O-])c1cn2c(n1)OC1(CCN(c3ccc(C(F)(F)F)cc3)CC1)C2", "melting point": "249.2 to 250.1 °C"},
      {"smiles": "O=C(N1CCN(Cc2ccc(C(F)(F)F)cc2)CC1)N1CCC2(CC1)Cn1cc([N+](=O)[O-])nc1O2", "melting point": "226 to 230 °C (dec.)"},
      {"smiles": "O=C(NCc1ccc(C(F)(F)F)cc1)N1CCC2(CC1)Cn1cc([N+](=O)[O-])nc1O2", "melting point": "215 to 217 °C"},
      {"smiles": "C[C@]1(COC(=O)N(c2ccc(Cl)cc2)C2CCCCC2)Cn2cc([N+](=O)[O-])nc2O1", "melting point": "175 to 177 °C"},
      {"smiles": "C[C@]1(CN2CCN(N=Cc3ccc(C(F)(F)F)cc3)CC2)Cn2cc([N+](=O)[O-])nc2O1", "note": "[Example 504]", "melting point": "201 to 202.3 °C (dec.)"},
      {"smiles": "C[C@]1(CN2CCN(N=Cc3ccc(C(F)(F)F)cc3)CC2)Cn2cc([N+](=O)[O-])nc2O1", "note": "[Example 505]", "melting point": "188.4 to 191.2 °C"}
    ]}
  ]
}
